22 compounds from patent US20040198791A1 (priority 2001, published 2004) can be followed below.

Molecules are shown by their SMILES.

In this assay the target is T1, human NPY Y5 receptors (Homo sapiens, UniProt Q15761).
T1 construct: expressed in transfected cells; host or cells: HEK-293
T1 sequence (Q15761 1-445): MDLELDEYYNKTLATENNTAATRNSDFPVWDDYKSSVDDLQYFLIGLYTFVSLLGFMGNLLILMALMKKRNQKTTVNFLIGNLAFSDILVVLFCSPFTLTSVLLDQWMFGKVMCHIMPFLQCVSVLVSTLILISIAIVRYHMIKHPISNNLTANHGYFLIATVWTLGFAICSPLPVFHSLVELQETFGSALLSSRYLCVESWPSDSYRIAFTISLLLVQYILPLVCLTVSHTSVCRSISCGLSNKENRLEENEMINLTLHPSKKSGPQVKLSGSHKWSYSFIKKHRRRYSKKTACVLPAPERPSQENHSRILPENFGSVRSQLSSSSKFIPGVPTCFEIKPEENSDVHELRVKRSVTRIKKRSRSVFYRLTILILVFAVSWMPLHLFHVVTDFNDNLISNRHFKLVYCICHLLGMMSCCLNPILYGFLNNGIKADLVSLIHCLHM
Briefly: Inhibition of [125I]-PYY binding to HEK-293 cells expressing human NPY Y5 receptors. The settings on record: HEK-293 cells stably expressing human NPY Y5 receptors, 25° C., 120 minutes. The method, then: Effects on binding ability of PYY(peptide YY) to HEK(human embryo kidneys)-293 cells transducted with human NPY(neuropeptide Y) Y5 receptors
HEK-293 cells, which stably manifest human NPY Y5 receptors, were incubated at 25° C. for 120 minutes in the […] of test compounds in an assay medium containing 0.1 mM PMSF (phenylmethylsulfonyl fluoride), 0.05% bacitracin, 0.1% BSA (bovine serum albumin) and 25mM Tris HCl (pH 7.4). The non-specific binding was measured in the presence of […] non-labelled PYY. The reaction was terminated by rapidly filtering with Wattmann GF/C glass fiber filter with using the cell harvester. After the glass fiber filter was washed with 150 mM sodium chloride and 25 mM Tris HCl buffer solution (pH 7.4) containing 0.01% BSA, radioactivity of the […] was measured by using the γ-counter. The IC50 value of the test compound was determined by the inhibition of [^125I]-PYY binding obtained by the test compound at various concentrations. The test compound is represented with the Example number in which the compound was obtained.
As a reminder, the IC50 is the midpoint of a concentration-inhibition curve. Lower therefore signals inhibition by little substance. `COc1ccc2c(c1)-c1c(nc(-c3ccccc3)n1O)CCC2` [2 (1), 9-Methoxy-2-phenyl-5,6-dihydro-4H-1,3-diazabenzo[e]azulen-1-ol] returned an IC50 of 24 nM. Then `COc1ccc2c(c1)-c1nc(-c3ccccc3)[nH]c1CCC2` [8 (1), 9-Methoxy-2-phenyl-3,4,5,6-tetrahydro-1,3-diazabenzo[e]azulene], with 25 nM. In the case of `COc1ccc2c(c1)-c1nc(-c3cccnc3)[nH]c1CCC2` [8 (2), 9-Methoxy-2-(pyridin-3-yl)-3,4,5,6-tetrahydro-1,3-diazabenzo[e]azulene] it was 6.3 nM; in that of `COc1ccc2c(c1)-c1nc(-c3ccccn3)[nH]c1CCC2` [8 (3), 9-Methoxy-2-(pyridin-2-yl)-3,4,5,6-tetrahydro-1,3-diazabenzo[e]azulene], 120 nM; in that of `COc1ccc2c(c1)-c1nc(-c3ccccc3)[nH]c1CC2` [8 (4), 8-Methoxy-2-phenyl-4,5-dihydronaphtho[1,2-d]imidazole], 51 nM. In the case of `c1ccc(-c2nc3c([nH]2)-c2ccccc2CCC3)cc1` [8 (5), 2-Phenyl-5,6-dihydro-4H-1,3-diazabenzo[e]azulene] it was 5.8 nM. Regarding `c1ccc(-c2nc3c([nH]2)-c2ccccc2CCC3)nc1` [8 (6), 2-(Pyridin-2-yl)-5,6-dihydro-4H-1,3-diazabenzo[e]azulene], the IC50 amounted to 130 nM. In the case of `c1cncc(-c2nc3c([nH]2)-c2ccccc2CCC3)c1` [8 (7), 2-(Pyridin-3-yl)-5,6-dihydro-4H-1,3-diazabenzo[e]azulene] it was 7.3 nM; in that of `c1ccc2c(c1)CCCc1nc(-c3ccncc3)[nH]c1-2` [8 (8), 2-(Pyridin-4-yl)-5,6-dihydro-4H-1,3-diazabenzo[e]azulene], 20 nM. Then `c1ccc2c(c1)CCCc1nc(-c3ccc4c(c3)OCCO4)[nH]c1-2` [8 (9), 2-(1,4-Benzodioxan-6-yl)-5,6-dihydro-4H-1,3-diazabenzo[e]azulene], with 180 nM; and `CC(C)n1nc(-c2nc3c([nH]2)-c2ccccc2CCC3)ccc1=O` [8 (10), 2-(1-Isopropyl-6-oxo-1,6-dihydropyridazin-3-yl)-5,6-dihydro-4H-1,3-diazabenzo[e]azulene], with 260 nM; and `c1ccc2c(c1)CCCc1[nH]c(-c3c[nH]cn3)nc1-2` [8 (11)], with 550 nM.

In turn, `Cc1ccc2c(c1)-c1[nH]c(-c3ccccn3)nc1CCC2` [8 (12), 2-(Pyridin-2-yl)-5,6-dihydro-9-methyl-4H-1,3-diazabenzo[e]azulene] returned a 50% inhibitory concentration (IC50) of 32 nM. Then `Cc1ccc2c(c1)-c1[nH]c(-c3cccnc3)nc1CCC2` [8 (13), 2-(Pyridin-3-yl)-5,6-dihydro-9-methyl-4H-1,3-diazabenzo[e]azulene], with 2.3 nM; and `Cc1ccc2c(c1)-c1[nH]c(-c3ccncc3)nc1CCC2` [8 (14), 2-(Pyridin-4-yl)-5,6-dihydro-9-methyl-4H-1,3-diazabenzo[e]azulene], with 6.4 nM. Consider `c1ccc(-c2nc3c([nH]2)CCOc2ccccc2-3)cc1` [8 (15), 2-Phenyl-4,5-dihydro-3H[l]benzoxepino[4,5-d]imidazole], for which the IC50 is 61 nM. Then `Fc1ccc2c(c1)-c1nc(-c3cccnc3)[nH]c1CCC2` [10 (1), 9-Fluoro-2-(pyridin-3-yl)-5,6-dihydro-4H-1,3-diazabenzo[e]azulene], with 6.9 nM. Then `Fc1ccc2c(c1)-c1[nH]c(-c3ccncc3)nc1CCC2` [10 (2), 9-Fluoro-2-(pyridin-4-yl)-5,6-dihydro-4H-1,3-diazabenzo[e]azulene], with 13 nM. For `COc1ccc2c(c1)-c1c(nc(-c3ccncc3)n1O)CCC2` [Example 1, 9-methoxy-2-(pyridin-4-yl)-5,6-dihydro-4H-1,3-diazabenzo[e]azulen-1-ol], the IC50 is 73 nM.

In turn, `COc1ccc2c(c1)-c1nc(-c3ccncc3)[nH]c1CCC2` [Example 7, 9-methoxy-2-(pyridin-4-yl)-3,4,5,6-tetrahydro-1,3-diazabenzo[e]azulene] gave an IC50 of 13 nM. Then `Fc1ccc2c(c1)-c1[nH]c(-c3ccccn3)nc1CCC2` [Example 9, 9-fluoro-2-(pyridin-2-yl)-5,6-dihydro-4H-1,3-diazabenzo[e]azulene], with 46 nM; and `Clc1ccc2c(c1)-c1[nH]c(-c3ccccc3)nc1CCC2` [Example 11, 9-chloro-2-phenyl-5,6-dihydro-4H-1,3-diazabenzo[e]azulene], with 1.7 nM.
